The results in this text go back to ChEMBL document CHEMBL1145958, “Furoyl and benzofuroyl pyrroloquinolones as potent and selective PDE5 inhibitors for treatment of erectile dysfunction” (J Med Chem, 2003).

Assay [1] can be described thus: Selective inhibition of PDE5 versus PDE6 in retinal rod.
Assay [2] is described as follows: Selective inhibition of PDE5 versus PDE6 in retinal cone.
Assay [3] addresses T1, cGMP-specific 3',5'-cyclic phosphodiesterase (Homo sapiens, UniProt O76074). Nature of the assay: Inhibitory activity against Phosphodiesterase 5 (PDE5) was evaluated.
Assay [4] addresses T1, cGMP-specific 3',5'-cyclic phosphodiesterase. In words: Inhibition of PDE5.
The species entered for assay [5] is Canis familiaris. Nature of the assay: Dose required for potentiated ICP increase in dogs. Format: functional, Canis lupus familiaris.
For assay [6], the species on record is Canis familiaris. Nature of the assay: Effective dose in dogs. The class given is functional. Conditions: Canis lupus familiaris.

As to `CN1CCN(C(=O)c2ccc(-c3ccc(C(=O)N4Cc5c(nc6ccccc6c5O)C4c4ccc5c(c4)OCO5)o3)cc2)CC1` (racemic) [listing 1 of 2 here], the Ratio in assay [1] and in assay [2] was 2 throughout.
`O=C(c1ccc(-c2cccc([N+](=O)[O-])c2)o1)N1Cc2c(nc3ccccc3c2O)C1c1ccc2c(c1)OCO2` (stereo not drawn): the affinity in assay [3] corresponds to a Ki of 1.3 nM.
As to `CN1CCN(C(=O)c2ccc(-c3ccc(C(=O)N4Cc5c(nc6ccccc6c5O)C4c4ccc5c(c4)OCO5)o3)cc2)CC1` (single isomer, unassigned; (-)) [listing 1 of 2 here], the Ratio was 13 in assay [1] and 13.2 in assay [2].
Consider `CN1CCN(C(=O)c2ccc(-c3ccc(C(=O)N4Cc5c(nc6ccccc6c5O)C4c4ccc5c(c4)OCO5)o3)cc2)CC1` (single isomer, unassigned; (-)) [listing 2 of 2 here], for which the Ki (in general, the dissociation constant of the complex between target and ligand, obtained from inhibition or displacement) in assay [3] was found to be 0.2 nM.
`CN(C)c1ccc(-c2ccc(C(=O)N3Cc4c(nc5ccccc5c4O)C3c3ccc4c(c3)OCO4)o2)cc1` (stereo not drawn) yielded a Ki in assay [3] of 3.74 nM.
Turning to `Cc1ccc(-c2ccc(C(=O)N3Cc4c(nc5ccccc5c4O)C3c3ccc4c(c3)OCO4)o2)cc1` (stereo not drawn), in assay [3], the Ki worked out at 2.64 nM.
Consider `O=C(c1ccc(-c2ccncc2)o1)N1Cc2c(nc3ccccc3c2O)C1c1ccc2c(c1)OCO2` (stereo not drawn), for which the values for the Ratio in assay [1] and in assay [2] were 23 and 34, respectively. In assay [3], this compound gave a Ki of 0.31 nM.
`O=C(c1cc2ccc(O)cc2o1)N1Cc2c(nc3ccccc3c2O)C1c1ccc2c(c1)CCO2` (stereo not drawn): the figures for the Ratio in assay [1] and in assay [2] were 291 and 646, respectively. In assay [3], this compound came in with a Ki of 1.74 nM.
In assay [3], `O=C(c1ccc(-c2cccc(CO)c2)o1)N1Cc2c(nc3ccccc3c2O)C1c1ccc2c(c1)OCO2` (stereo not drawn) came in with a Ki of 0.47 nM.
On the same count and under the same terms, for `COc1ccc(-c2ccc(C(=O)N3Cc4c(nc5ccccc5c4O)C3c3ccc4c(c3)OCO4)o2)cc1` (stereo not drawn) the value was 1.71 nM; for `O=C(c1ccc(-c2ccsc2)o1)N1Cc2c(nc3ccccc3c2O)C1c1ccc2c(c1)OCO2` (stereo not drawn), 0.71 nM; for `O=C(c1ccc(-c2ccco2)o1)N1Cc2c(nc3ccccc3c2O)C1c1ccc2c(c1)OCO2` (stereo not drawn), 4.66 nM.
`O=C(c1ccc(-c2ccccc2)o1)N1Cc2c(nc3ccccc3c2O)C1c1ccc2c(c1)OCO2` (stereo not drawn): the Ki in assay [3] is 2.09 nM.
For the compound `O=C(c1ccccc1)N1Cc2c(nc3ccccc3c2O)C1c1ccc2c(c1)OCO2` (stereo not drawn), affinity in assay [3] was put at a Ki of 2.49 nM.
The compound `O=C(c1ccc(-c2cccc(C(F)(F)F)c2)o1)N1Cc2c(nc3ccccc3c2O)C1c1ccc2c(c1)OCO2` (stereo not drawn) had an inhibitory constant (Ki) in assay [3] of 0.98 nM.
Consider `O=Cc1ccc(-c2ccc(C(=O)N3Cc4c(nc5ccccc5c4O)C3c3ccc4c(c3)OCO4)o2)cc1` (stereo not drawn), for which, in assay [4], the Ki was determined as 2.59 nM.
In assay [3], `O=C(c1ccc(-c2ccc(OCCN3CCCC3)cc2)o1)N1Cc2c(nc3ccccc3c2O)C1c1ccc2c(c1)OCO2` (stereo not drawn) yielded a Ki of 0.76 nM.
Turning to `O=C(c1cc2ccc(O)cc2o1)N1Cc2c(nc3ccccc3c2O)C1c1ccc2c(c1)OCO2` (stereo not drawn), the Ratio in assay [1] is 31; in assay [2], 29. Also, the affinity in assay [3] corresponds to a Ki of 0.35 nM.
Compound `O=C(c1ccc(-c2ccc(O)cc2)o1)N1Cc2c(nc3ccccc3c2O)C1c1ccc2c(c1)OCO2` (stereo not drawn) yielded a Ki in assay [3] of 0.73 nM.
In assay [3], `O=C(O)c1ccc(-c2ccc(C(=O)N3Cc4c(nc5ccccc5c4O)C3c3ccc4c(c3)OCO4)o2)cc1` (stereo not drawn) displayed a Ki of 1.01 nM.
`COC(=O)c1ccc(-c2ccc(C(=O)N3Cc4c(nc5ccccc5c4O)C3c3ccc4c(c3)OCO4)o2)cc1` (stereo not drawn) yielded an inhibition constant (Ki) in assay [3] of 0.99 nM.
`CN1CCN(C(=O)c2ccc(-c3ccc(C(=O)N4Cc5c(nc6ccccc6c5O)C4c4ccc5c(c4)OCO5)o3)cc2)CC1` (racemic) [listing 2 of 2 here] gave a Ki in assay [3] of 1.82 nM.
In the case of `CN1CCN(C(=O)c2ccc(-c3ccc(C(=O)N4Cc5c(nc6ccccc6c5O)C4c4ccc5c(c4)CCO5)o3)cc2)CC1` (stereo not drawn), the Ratio in assay [1] worked out at 13; in assay [2], 12.
`O=C(c1ccc(-c2ccc(CO)cc2)o1)N1Cc2c(nc3ccccc3c2O)C1c1ccc2c(c1)OCO2` (stereo not drawn) had a Ki in assay [3] of 0.61 nM.
Turning to `CS(=O)(=O)Nc1ccc(-c2ccc(C(=O)N3Cc4c(nc5ccccc5c4O)C3c3ccc4c(c3)OCO4)o2)cc1` (stereo not drawn), in the assay listed under Canis familiaris [5], the Dose is 0.3 mg/kg. For the same compound, it took a dose of 0.284 mg/kg to reach the 50% effect level in the assay listed under Canis familiaris [6] (ED50). Moreover, the affinity in assay [3], expressed as Ki, was 0.24 nM.
The compound `O=C(c1ccc(Br)o1)N1Cc2c(nc3ccccc3c2O)C1c1ccc2c(c1)OCO2` (stereo not drawn) yielded an inhibitory constant (Ki) in assay [3] of 2.07 nM.
Compound `O=C(c1ccc(-c2ccc([N+](=O)[O-])cc2)o1)N1Cc2c(nc3ccccc3c2O)C1c1ccc2c(c1)OCO2` (stereo not drawn) displayed a Ki in assay [3] of 0.61 nM.
As for `N#Cc1ccc(-c2ccc(C(=O)N3Cc4c(nc5ccccc5c4O)C3c3ccc4c(c3)OCO4)o2)cc1` (stereo not drawn), the Ki in assay [3] amounted to 2.71 nM.
In the case of `O=C(c1ccc(-c2cccnc2)o1)N1Cc2c(nc3ccccc3c2O)C1c1ccc2c(c1)OCO2` (stereo not drawn), the figures for the Ratio in assay [1] and in assay [2] were 144 and 108, respectively. In addition, the affinity in assay [3], expressed as Ki, was 0.15 nM.
The compound `O=C(c1ccc(-c2cccnc2)o1)N1Cc2c(nc3ccccc3c2O)C1c1ccc2c(c1)CCO2` (stereo not drawn) displayed a Ki in assay [3] of 0.53 nM.
